How the values were obtained:
[1] = target: Human immunodeficiency virus type 1 reverse transcriptase (Human immunodeficiency virus 1, UniProt Q72547, L100I); test: Inhibition of HIV1 reverse transcriptase L100I mutant RNA-dependent DNA polymerase activity using poly(rA)/oligo(dT)10:1 and [3H]-dTTP substrate
[2] = target: Human immunodeficiency virus type 1 reverse transcriptase (Human immunodeficiency virus 1, UniProt Q72547, K103N); test: Inhibition of HIV1 reverse transcriptase K103N mutant RNA-dependent DNA polymerase activity using poly(rA)/oligo(dT)10:1 and [3H]-dTTP substrate
[3] = target: Human immunodeficiency virus type 1 reverse transcriptase (Human immunodeficiency virus 1, UniProt Q72547); test: Inhibition of wild type HIV1 reverse transcriptase RNA-dependent DNA polymerase activity using poly(rA)/oligo(dT)10:1 and [3H]-dTTP substrate
[4] = test system: Human immunodeficiency virus 1; assay type: functional, organism-based; details: Human immunodeficiency virus 1, MT4, 120 h
[5] = test system: Human immunodeficiency virus 1; test: Antiviral activity against HIV1 containing reverse transcriptase K103N mutant infected in human MT4 cells assessed as inhibition of virus-induced cytopathicity measured 5 days post infection by MTT assay; assay type: functional, organism-based; details: Human immunodeficiency virus 1, MT4, 120 h
[6] = Cytotoxicity against mock-infected human MT4 cells measured after 5 days by MTT assay; assay type: cell-based
[7] = test system: Human immunodeficiency virus 1; test: Antiviral activity against HIV1 NL4-3 infected in human MT4 cells assessed as inhibition of virus-induced cytopathicity measured 5 days post infection by MTT assay; assay type: functional, organism-based; details: Human immunodeficiency virus 1, NL4-3, MT4, 120 h
in vitro = details: human
Description: Selectivity index, ratio of CC50 for mock-infected human MT4 cells to EC50 for HIV1 NL4-3 infected in human MT4 cells

[8] = test system: Human immunodeficiency virus 1; test: microbe, parasite or virus in culture; details: Human immunodeficiency virus 1, MT4, 120 h
Description: Antiviral activity against HIV1 containing reverse transcriptase Y188L mutant infected in human MT4 cells assessed as inhibition of virus-induced cytopathicity measured 5 days post infection by MTT assay

[9] = test system: Human immunodeficiency virus 2; test: Antiviral activity against HIV2 infected in human PBMCs assessed as inhibition of p24 antigen production by ELISA; assay type: functional, organism-based
[10] = test system: Human immunodeficiency virus 1; test: Antiviral activity against HIV1 NL4-3 infected in human PBMCs assessed as inhibition of p24 antigen production by ELISA; assay type: functional, organism-based; details: Human immunodeficiency virus 1, NL4-3
[11] = test system: Human immunodeficiency virus 1; assay type: functional, organism-based; details: Human immunodeficiency virus 1, IRLL98, MT4, 120 h
[12] = test system: Human immunodeficiency virus 1; test: Potency index, ratio of EC50 for Efavirenz to EC50 for compound against HIV1 containing reverse transcriptase K103N mutant infected in human MT4 cells assessed as inhibition of virus-induced cytopathicity measured 5 days post infection by MTT assay; assay type: functional
[13] = test system: Human immunodeficiency virus 1; test: microbe, parasite or virus in culture; details: Human immunodeficiency virus 1, clade G (BCF-DIOUM)
Description: Antiviral activity against HIV1 clade G (BCF-DIOUM) infected in human PBMCs assessed as inhibition of p24 antigen production by ELISA

[14] = test system: Human immunodeficiency virus 1; test: microbe, parasite or virus in culture; details: Human immunodeficiency virus 1, clade F (BZ162)
Description: Antiviral activity against HIV1 clade F (BZ162) infected in human PBMCs assessed as inhibition of p24 antigen production by ELISA

[15] = test system: Human immunodeficiency virus 1; test: microbe, parasite or virus in culture; details: Human immunodeficiency virus 1, clade B (BaL)
Description: Antiviral activity against HIV1 clade B (BaL) infected in human PBMCs assessed as inhibition of p24 antigen production by ELISA

[16] = test system: Human immunodeficiency virus 1; test: microbe, parasite or virus in culture; details: Human immunodeficiency virus 1, clade A (UG273)
Description: Antiviral activity against HIV1 clade A (UG273) infected in human PBMCs assessed as inhibition of p24 antigen production by ELISA

[17] = test system: Human immunodeficiency virus 1; test: microbe, parasite or virus in culture; details: Human immunodeficiency virus 1, clade A/E (ID12)
Description: Antiviral activity against HIV1 clade A/E (ID12) infected in human PBMCs assessed as inhibition of p24 antigen production by ELISA

[18] = test system: Human immunodeficiency virus 1; test: microbe, parasite or virus in culture; details: Human immunodeficiency virus 1, clade C (SM145)
Description: Antiviral activity against HIV1 clade C (SM145) infected in human PBMCs assessed as inhibition of p24 antigen production by ELISA

[19] = test system: Human immunodeficiency virus 1; test: microbe, parasite or virus in culture; details: Human immunodeficiency virus 1, clade C (DJ259)
Description: Antiviral activity against HIV1 clade C (DJ259) infected in human PBMCs assessed as inhibition of p24 antigen production by ELISA

[20] = test system: Human immunodeficiency virus 1; test: microbe, parasite or virus in culture; details: Human immunodeficiency virus 1, clade D (UG270)
Description: Antiviral activity against HIV1 clade D (UG270) infected in human PBMCs assessed as inhibition of p24 antigen production by ELISA

Structure (SMILES): Cc1cc(C)cc(S(=O)(=O)c2c(C(=O)Nc3cccc(C#N)c3)[nH]c3ccc(Cl)cc23)c1
- IC50 [1]: 287 nM
- IC50 [2]: > 40 nM
- IC50 [3]: 506 nM
- EC50 [4]: 44 nM
- EC50 [5]: 19.8 nM
- CC50 at 120 h [6]: > 10800 nM
- EC50 [7]: 2.2 nM
- selectivity ratio (in vitro): > 4900
- EC50 [8]: 1390 nM

Structure (SMILES): Cc1cc(C)cc(S(=O)(=O)c2c(C(=O)NC(C)C(N)=O)[nH]c3ccc(Cl)cc23)c1 (racemic)
- CC50 at 120 h [6]: 6040 nM
- EC50 [7]: 2 nM
- selectivity ratio (in vitro): 3020

Structure (SMILES): Cc1cc(C)cc(S(=O)(=O)c2c(C(=O)NCCc3ccccn3)[nH]c3ccc(Cl)cc23)c1
- CC50 at 120 h [6]: > 10700 nM
- EC50 [7]: 2 nM
- selectivity ratio (in vitro): > 5340

Structure (SMILES): Cc1cc(C)cc(S(=O)(=O)c2c(C(=O)NCc3ccnc4ccccc34)[nH]c3ccc(Cl)cc23)c1
- CC50 at 120 h [6]: > 9920 nM
- EC50 [7]: 12 nM
- selectivity ratio (in vitro): > 827

Structure (SMILES): Cc1cc(C)cc(S(=O)(=O)c2c(C(=O)NCc3ccncc3)[nH]c3ccc(Cl)cc23)c1
- IC50 [1]: 11 nM
- IC50 [2]: 45 nM
- IC50 [3]: 21 nM
- EC50 [9]: > 200 nM
- EC50 [10]: 0.4 nM
- EC50 [11]: 1 nM
- Ratio EC50 [12]: 8
- EC50 [4]: 2.2 nM
- EC50 [5]: 8.8 nM
- CC50 at 120 h [6]: > 11000 nM
- EC50 [7]: 2 nM
- selectivity ratio (in vitro): > 5510
- EC50 [13]: 1.7 nM
- EC50 [14]: 0.6 nM
- EC50 [15]: 0.1 nM
- EC50 [16]: 0.6 nM
- EC50 [8]: 22 nM
- EC50 [17]: 0.6 nM
- EC50 [18]: 0.3 nM
- EC50 [19]: 0.4 nM
- EC50 [20]: 0.4 nM

Structure (SMILES): Cc1cc(C)cc(S(=O)(=O)c2c(C(=O)NCc3ccc(C#N)cc3)[nH]c3ccc(Cl)cc23)c1
- IC50 [1]: > 4 nM
- IC50 [2]: > 10 nM
- IC50 [3]: > 10 nM
- EC50 [4]: 32.1 nM
- EC50 [5]: 118 nM
- CC50 at 120 h [6]: > 10500 nM
- EC50 [7]: 1.5 nM
- selectivity ratio (in vitro): > 6970
- EC50 [8]: > 10700 nM

Structure (SMILES): Cc1cc(C)cc(S(=O)(=O)c2c(C(=O)NCc3cccnc3)[nH]c3ccc(Cl)cc23)c1
- IC50 [1]: 8 nM
- IC50 [2]: 32 nM
- IC50 [3]: 20 nM
- EC50 [4]: 8.8 nM
- EC50 [5]: 37.8 nM
- CC50 at 120 h [6]: > 11000 nM
- EC50 [7]: 2.2 nM
- selectivity ratio (in vitro): > 5010
- EC50 [8]: 44 nM

Structure (SMILES): O=C1Nc2ccc(Cl)cc2[C@@](C#CC2CC2)(C(F)(F)F)O1 [EFAVIRENZ]
- EC50 [11]: 980 nM
- EC50 [4]: 158 nM
- EC50 [5]: 69.3 nM
- CC50 at 120 h [6]: > 15800 nM
- EC50 [7]: 6.3 nM

Structure (SMILES): Cc1ccnc2c1NC(=O)c1cccnc1N2C1CC1 [NEVIRAPINE]
- EC50 [11]: > 18900 nM
- EC50 [4]: > 3760 nM
- EC50 [5]: > 3760 nM
- CC50 at 120 h [6]: > 18800 nM
- EC50 [7]: 1500 nM
- EC50 [8]: > 3760 nM

Structure (SMILES): Cc1cc(C)cc(S(=O)(=O)c2c(C(=O)Nc3ccccc3C#N)[nH]c3ccc(Cl)cc23)c1
- CC50 at 120 h [6]: > 10800 nM
- EC50 [7]: 2 nM
- selectivity ratio (in vitro): > 5390

Structure (SMILES): Cc1nnc(C(C)C)n1[C@H]1C[C@H]2CC[C@@H](C1)N2CC[C@H](NC(=O)C1CCC(F)(F)CC1)c1ccccc1 (relative stereo) [MARAVIROC]
- EC50 [13]: 1 nM
- EC50 [14]: 1 nM
- EC50 [15]: 1 nM
- EC50 [16]: 1 nM
- EC50 [17]: 1 nM
- EC50 [18]: 1 nM
- EC50 [19]: 1 nM
- EC50 [20]: 1 nM

Structure (SMILES): Cc1cc(C)cc(S(=O)(=O)c2c(C(=O)NCCc3ccncc3)[nH]c3ccc(Cl)cc23)c1
- CC50 at 120 h [6]: > 10700 nM
- EC50 [7]: 2 nM
- selectivity ratio (in vitro): > 5340

Structure (SMILES): Cc1cc(C)cc(S(=O)(=O)c2c(C(=O)NCCc3cccnc3)[nH]c3ccc(Cl)cc23)c1
- IC50 [1]: 24 nM
- IC50 [2]: 162 nM
- IC50 [3]: 40 nM
- EC50 [4]: 6.3 nM
- EC50 [5]: 27.3 nM
- CC50 at 120 h [6]: > 10700 nM
- EC50 [7]: 2.1 nM
- selectivity ratio (in vitro): > 5090
- EC50 [8]: 504 nM

Structure (SMILES): Cc1cc(C)cc(S(=O)(=O)c2c(C(=O)NCc3ccccn3)[nH]c3ccc(Cl)cc23)c1
- CC50 at 120 h [6]: > 11000 nM
- EC50 [7]: 2 nM
- selectivity ratio (in vitro): > 5510

Structure (SMILES): Cc1cc(C)cc(S(=O)(=O)c2c(C(=O)Nc3ccc(C#N)cc3)[nH]c3ccc(Cl)cc23)c1
- CC50 at 120 h [6]: > 10800 nM
- EC50 [7]: 11 nM
- selectivity ratio (in vitro): > 980

Structure (SMILES): Cc1cn([C@H]2C[C@H](N=[N+]=[N-])[C@@H](CO)O2)c(=O)[nH]c1=O [ZIDOVUDINE]
- EC50 [11]: 3.8 nM
- EC50 [4]: 1.6 nM
- EC50 [5]: 15.6 nM
- CC50 at 120 h [6]: > 18700 nM
- EC50 [7]: 7.8 nM
- selectivity ratio (in vitro): > 2400
- EC50 [8]: 11.7 nM

— ChEMBL document CHEMBL2163206, “New nitrogen containing substituents at the indole-2-carboxamide yield high potent and broad spectrum indolylarylsulfone HIV-1 non-nucleoside reverse transcriptase inhibitors” (J Med Chem, 2012)
